≈ marks a conversion by molar mass, not a printed value. Where only a bound is given, the exact number is not on record here.

What all share (assay type): functional
The subject of assay [1] is Enterococcus faecalis. As to the kind of experiment: Evaluated for its antibacterial activity against Enterococcus faecalis UC 9217.
For assay [2], the system named is Escherichia coli. The assay is described as follows: Evaluated for its antibacterial activity against Escherichia coli UC 6674.
In assay [3] the test system is Haemophilus influenzae. The assay is described as follows: Evaluated for its antibacterial activity against Haemophilus influenzae 30063.
The subject of assay [4] is Klebsiella pneumoniae. As to the kind of experiment: Evaluated for its antibacterial activity against Klebsiella pneumoniae UC 12081.
The test system of assay [5] is Pseudomonas aeruginosa. As to the kind of experiment: Evaluated for its antibacterial activity against Pseudomonas aeruginosa UC 6676.
Assay [6] has as its system Staphylococcus epidermidis. As to the kind of experiment: Evaluated for its antibacterial activity against Staphylococcus epidermidis UC 12084.
Assay [7] deals with Staphylococcus aureus. As to the kind of experiment: Evaluated for its antibacterial activity against Staphylococcus aureus UC 9218.
Assay [8] has as its system Streptococcus pneumoniae. As to the kind of experiment: Evaluated for its antibacterial activity against Streptococcus pneumoniae UC 9912.
Assay [9] has as its system Staphylococcus aureus. As to the kind of experiment: Antibacterial activity against Staphylococcus aureus UC 9218 in the presence of 0% serum.
The subject of assay [10] is Staphylococcus aureus. As to the kind of experiment: Antibacterial activity against Staphylococcus aureus UC 9218 in the presence of 10% serum.
The subject of assay [11] is Staphylococcus aureus. As to the kind of experiment: Antibacterial activity against Staphylococcus aureus UC 9218 in the presence of 5% serum.

Take `CSCC(=O)N(CCc1cccc(C(F)(F)F)c1)c1cccc2ccccc12`: the MIC in assay [1], in [2], in assay [3], in [4], in [5] and in assay [6] was above 128 µg/mL throughout. In addition, the MIC in [7] and in [8] was above 128 µg/mL each time.
For `O=C(CC(=O)C(F)(F)F)N(CCc1cccc(C(F)(F)F)c1)c1cccc2ccccc12`, the MIC in assay [1] was 4 µg/mL (≈ 8.82 µM); in assay [2] it was above 128 µg/mL; in [3], 8 µg/mL (≈ 17.6 µM); in assay [4], above 128 µg/mL; in assay [5] it was above 128 µg/mL; in assay [9], 2 µg/mL. Moreover, the MIC amounted to 64 µg/mL in assay [10]; 16 µg/mL in assay [11]; 2 µg/mL (≈ 4.41 µM) in assay [6]; 2 µg/mL (≈ 4.41 µM) in assay [7]; 8 µg/mL (≈ 17.6 µM) in [8].
`FC(F)(F)c1cccc(CCNc2ccc3ccccc3c2)c1`: the MIC in assay [1] is above 1 µg/mL; in assay [2], above 128 µg/mL; in [3] it was 4 µg/mL (≈ 12.7 µM); in [4] it was above 128 µg/mL; in assay [5] it was above 128 µg/mL; in assay [9], 4 µg/mL. In addition, the MIC in [10] was 64 µg/mL; in assay [11] it was 32 µg/mL; in assay [6] it was 2 µg/mL (≈ 6.34 µM); in assay [7] it was 4 µg/mL (≈ 12.7 µM); in assay [8], 2 µg/mL (≈ 6.34 µM).
Consider `Clc1ccc(CCNc2cccc3ccccc23)c(Cl)c1`, for which the MIC is 1 µg/mL (≈ 3.16 µM) in [1]; above 128 µg/mL in [2]; 1 µg/mL (≈ 3.16 µM) in [3]; above 128 µg/mL in assay [4]; above 128 µg/mL in [5]; 2 µg/mL in [9]. The MIC in assay [10] is 64 µg/mL; in assay [11] it was 16 µg/mL; in assay [6], 1 µg/mL (≈ 3.16 µM); in [7], 2 µg/mL (≈ 6.32 µM); in [8] it was 2 µg/mL (≈ 6.32 µM).
As for `COc1ccc(OC)c(CCNc2cccc3ccccc23)c1`, the MIC in assay [1] was 16 µg/mL (≈ 52.1 µM); in [2], above 128 µg/mL; in assay [3], 32 µg/mL (≈ 104 µM); in assay [4], above 128 µg/mL; in [5], above 128 µg/mL; in assay [9] it was 16 µg/mL. Also, the MIC in [10] worked out at 128 µg/mL; in assay [11], 32 µg/mL; in assay [6], 16 µg/mL (≈ 52.1 µM); in assay [7], 16 µg/mL (≈ 52.1 µM); in [8], 16 µg/mL (≈ 52.1 µM).
As to `C[S+]([O-])CC(=O)N(CCc1cccc(C(F)(F)F)c1)c1cccc2ccccc12` (stereo not drawn), the MIC in assay [1] was above 128 µg/mL; in [2] it was above 128 µg/mL; in assay [3], above 128 µg/mL; in [4], above 128 µg/mL; in assay [5], above 128 µg/mL; in [6] it was 128 µg/mL (≈ 305 µM). Further, the values for the MIC in [7] and in [8] were 128 µg/mL (≈ 305 µM) and 64 µg/mL (≈ 153 µM), respectively.
As for `CCc1cccc2ccccc12`, the MIC in [1] was 128 µg/mL (≈ 819 µM); in [2], above 128 µg/mL; in assay [3], above 128 µg/mL; in assay [4], above 128 µg/mL; in assay [5] it was above 128 µg/mL; in assay [9], 128 µg/mL. Besides, the MIC in assay [10] was above 128 µg/mL; in [11], above 128 µg/mL; in assay [6], 128 µg/mL (≈ 819 µM); in [7] it was 128 µg/mL (≈ 819 µM); in assay [8], 32 µg/mL (≈ 205 µM).
`FC(F)(F)c1cccc(CNc2cccc3ccccc23)c1`: the MIC in [1] was 2 µg/mL (≈ 6.64 µM); in [2] it was above 128 µg/mL; in [3], 32 µg/mL (≈ 106 µM); in [4], above 128 µg/mL; in assay [5], above 128 µg/mL; in assay [9] it was 2 µg/mL. The MIC turned out to be 4 µg/mL (≈ 13.3 µM) in assay [6], 2 µg/mL (≈ 6.64 µM) in [7] and 8 µg/mL (≈ 26.6 µM) in assay [8].
As for `Cc1ccccc1NCCc1cccc(C(F)(F)F)c1`, the MIC in [1] is 2 µg/mL (≈ 7.16 µM); in assay [2] it was above 128 µg/mL; in assay [3] it was 4 µg/mL (≈ 14.3 µM); in assay [4], above 128 µg/mL; in [5], above 128 µg/mL; in assay [9], 4 µg/mL. The MIC turned out to be 32 µg/mL in [10]; 16 µg/mL in [11]; 2 µg/mL (≈ 7.16 µM) in assay [6]; 4 µg/mL (≈ 14.3 µM) in assay [7]; 1 µg/mL (≈ 3.58 µM) in assay [8].
For the molecule `O=C(CO)N(CCc1cccc(C(F)(F)F)c1)c1cccc2ccccc12`, the MIC in assay [1], in assay [2], in assay [3], in assay [4], in assay [5] and in assay [6] was above 128 µg/mL throughout. The MIC in assay [7] and in assay [8] was 32 µg/mL (≈ 85.7 µM) in each case.
For the molecule `c1ccc(-c2ccc(CCNc3cccc4ccccc34)cc2)cc1`, the MIC in assay [1] is 2 µg/mL (≈ 6.18 µM); in assay [2], above 128 µg/mL; in assay [3], 64 µg/mL (≈ 198 µM); in assay [4] it was above 128 µg/mL; in assay [5], above 128 µg/mL; in assay [9] it was 8 µg/mL. Further, the MIC in assay [10] turned out to be 128 µg/mL; in [11] it was 64 µg/mL; in assay [6], 8 µg/mL (≈ 24.7 µM); in [7], 8 µg/mL (≈ 24.7 µM); in assay [8], 16 µg/mL (≈ 49.5 µM).
As for `CC(=O)C(C#N)C(=O)N(CCc1cccc(C(F)(F)F)c1)c1cccc2ccccc12` (stereo not drawn), the MIC in assay [1] was 4 µg/mL (≈ 9.42 µM); in assay [2] it was above 128 µg/mL; in assay [3] it was above 128 µg/mL; in [4], above 128 µg/mL; in assay [5] it was above 128 µg/mL; in assay [9], 8 µg/mL. Besides, the MIC is 128 µg/mL in [10]; 128 µg/mL in [11]; 4 µg/mL (≈ 9.42 µM) in [6]; 8 µg/mL (≈ 18.8 µM) in [7]; 2 µg/mL (≈ 4.71 µM) in assay [8].
As to `CC(=O)CC(=O)N(CCc1cccc(C(F)(F)F)c1)c1cccc2ccccc12`, the MIC in assay [1], in assay [2], in assay [3], in assay [4], in [5] and in [6] was above 128 µg/mL each time. Moreover, the MIC in [7] was above 128 µg/mL; in assay [8], 32 µg/mL (≈ 80.1 µM).
Take `N#CCC(=O)N(CCc1cccc(C(F)(F)F)c1)c1cccc2ccccc12`: the MIC in assay [1], in [2], in assay [3], in assay [4], in [5] and in [6] was above 128 µg/mL each time. Further, the MIC is above 128 µg/mL in assay [7] and 16 µg/mL (≈ 41.8 µM) in [8].
With `CO/N=C(\C(=O)N[C@@H]1C(=O)N2C(C(=O)O)=C(COC(C)=O)CS[C@H]12)c1csc(N)n1` [CEFOTAXIME], the MIC was 0.06 µg/mL (≈ 0.132 µM) in [2], 0.015 µg/mL (≈ 0.0329 µM) in assay [3], 0.06 µg/mL (≈ 0.132 µM) in assay [4] and 16 µg/mL (≈ 35.1 µM) in [5].
Regarding `CN[C@H](CC(C)C)C(=O)N[C@H]1C(=O)N[C@@H](CC(N)=O)C(=O)N[C@H]2C(=O)N[C@H]3C(=O)N[C@H](C(=O)N[C@H](C(=O)O)c4cc(O)cc(O)c4-c4cc3ccc4O)[C@H](O)c3ccc(c(Cl)c3)Oc3cc2cc(c3O[C@@H]2O[C@H](CO)[C@@H](O)[C@H](O)[C@H]2O[C@H]2C[C@](C)(N)[C@H](O)[C@H](C)O2)Oc2ccc(cc2Cl)[C@H]1O` [VANCOMYCIN], the MIC in assay [1] was 1 µg/mL (≈ 0.69 µM); in [8] it was 0.25 µg/mL (≈ 0.173 µM).

Values taken from ChEMBL document CHEMBL1133840, “Enols as potent antibacterial agents” (2001).
